Patent publication US12077503B2, “Substituted cyclic amides and their use as herbicides” (FMC CORPORATION, priority 2015, dated 2024)

Legend:
Assay type in all cases: in vivo
Kochia (Kochia scoparia) [1] = experiment: Test A preemergence; conditions: for Kochia plant response rating (0 to 100 scale, 0 is no effect, 100 is complete control): visual injury approx. 10 d
Outline: (§1)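 Compounds were formulated in a non-phytotoxic solvent mixture with surfactant and applied as a preemergence directed soil spray after seeding, or sprayed postemergence over plants 2 to 10 cm tall at the one- to two-leaf stage. Evaluation after about 10 d compared treated with untreated controls, using a scale from 0 (no effect) to 100 (complete control).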

[2] = system: barnyardgrass (Echinochloa crus-galli); experiment: Test A preemergence; conditions: for Barnyardgrass plant response rating (0 to 100 scale, 0 is no effect, 100 is complete control): visual injury approx. 10 d
Outline: as §1

[3] = system: giant foxtail (Setaria faberii); experiment: Test A preemergence; conditions: for Foxtail, Giant plant response rating (0 to 100 scale, 0 is no effect, 100 is complete control): visual injury approx. 10 d
Outline: as §1

[4] = system: pigweed (Amaranthus retroflexus); experiment: Test A preemergence; conditions: for Pigweed plant response rating (0 to 100 scale, 0 is no effect, 100 is complete control): visual injury approx. 10 d
[5] = system: ragweed (common ragweed, Ambrosia elatior); experiment: Test A preemergence; conditions: for Ragweed plant response rating (0 to 100 scale, 0 is no effect, 100 is complete control): visual injury approx. 10 d
Outline: as §1

[6] = system: ryegrass, Italian (Italian ryegrass, Lolium multiflorum); experiment: Test A preemergence; conditions: for Ryegrass, Italian plant response rating (0 to 100 scale, 0 is no effect, 100 is complete control): visual injury approx. 10 d
Outline: as §1

[7] = system: Galium (catchweed bedstraw, Galium aparine); experiment: Test A postemergence
Outline: as §1

Kochia (Kochia scoparia) [8] = experiment: Test A postemergence
Outline: as §1

[9] = system: barnyardgrass (Echinochloa crus-galli); experiment: Test A postemergence
Outline: as §1

[10] = system: blackgrass (Alopecurus myosuroides); experiment: Test A postemergence
Outline: as §1

corn (Zea mays) = experiment: Test A postemergence
Outline: as §1

[11] = system: giant foxtail (Setaria faberii); experiment: Test A postemergence
Outline: as §1

[12] = system: pigweed (Amaranthus retroflexus); experiment: Test A postemergence
Outline: as §1

[13] = system: ragweed (common ragweed, Ambrosia elatior); experiment: Test A postemergence
Outline: as §1

[14] = system: ryegrass, Italian (Italian ryegrass, Lolium multiflorum); experiment: Test A postemergence
Outline: as §1

[15] = system: wheat (Triticum aestivum); experiment: Test A postemergence
Outline: as §1

[16] = system: barnyardgrass (Echinochloa crus-galli); experiment: Test B flooded paddy test; conditions: Flood, 250 g ai/ha; 0 to 100 scale where 0 is no effect and 100 is complete control; 13 to 15 d
Outline: (§2)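 Plants at 2-leaf stage flooded to 3 cm above soil, with compounds applied directly to paddy water and that depth maintained. Plants kept in greenhouse 13–15 d. Visual rating versus controls on a 0 (no effect) to 100 (complete control) scale.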

[17] = system: ducksalad (Heteranthera limosa); experiment: Test B flooded paddy test; conditions: Flood, 250 g ai/ha; 0 to 100 scale where 0 is no effect and 100 is complete control; 13 to 15 d
Outline: as §2

rice (Oryra sativa) = experiment: Test B flooded paddy test; conditions: Flood, 250 g ai/ha; 0 to 100 scale where 0 is no effect and 100 is complete control; 13 to 15 d
Outline: as §2

[18] = system: sedge, umbrella (small-flower umbrella sedge, Cyperus difformis); experiment: Test B flooded paddy test; conditions: Flood, 250 g ai/ha; 0 to 100 scale where 0 is no effect and 100 is complete control; 13 to 15 d
Outline: as §2

[19] = 125 g ai/ha, preemergence, 0 to 100 scale (0 no effect, 100 complete control)
[20] = 125 g ai/ha, postemergence, visual injury rating on 0 to 100 scale (0 no effect, 100 complete control), approx. 10 d
[21] = 500 g ai/ha, postemergence, 0 to 100 scale, 0 no effect, 100 complete control
[22] = 125 g ai/ha, Preemergence, visual injury after approximately 10 d, 0 to 100 scale where 0 is no effect and 100 is complete control
[23] = 125 g ai/ha, postemergence, visual rating after approx. 10 d, 0 to 100 scale (0 no effect, 100 complete control)
[24] = Postemergence, 500 g ai/ha, 0 to 100 scale where 0 is no effect and 100 is complete control
[25] = 500 g ai/ha, preemergence, 0 to 100 scale, 0 = no effect, 100 = complete control
[26] = 500 g ai/ha, postemergence, visual injury, 0 to 100 scale (0 no effect, 100 complete control), approx. 10 d

CC(=O)Oc1cccc(C2CNC(=O)C2C(=O)Nc2cccc(F)c2F)c1 (stereo not drawn) [Compound 432]
20: Barnyardgrass plant response rating [9, 20] | Plant response rating, Ryegrass, Italian [14, 21] | Plant response rating, Barnyardgrass [16]
0: Plant response rating, Kochia (Kochia (Kochia scoparia) [1]; [19]) | Kochia plant response rating (0 to 100 scale, 0 is no effect, 100 is complete control) (Kochia (Kochia scoparia) [1]; Preemergence, 500 g ai/ha) | Plant response rating, Foxtail, Giant [3, 19] | Foxtail, Giant plant response rating (0 to 100 scale, 0 is no effect, 100 is complete control) ([3]; Preemergence, 500 g ai/ha) | Plant response rating, Pigweed [4, 19] | Pigweed plant response rating (0 to 100 scale, 0 is no effect, 100 is complete control) ([4]; Preemergence, 500 g ai/ha) | Plant response rating, Ragweed [5, 19] | Ragweed plant response rating (0 to 100 scale, 0 is no effect, 100 is complete control) ([5]; Preemergence, 500 g ai/ha) | Plant response rating, Ryegrass, Italian [6, 19] | Ryegrass, Italian plant response rating (0 to 100 scale, 0 is no effect, 100 is complete control) ([6]; Preemergence, 500 g ai/ha) | Galium plant response rating [7, 20] | Plant response rating, Galium [7, 21] | Kochia plant response rating (Kochia (Kochia scoparia) [8]; [20]) | Plant response rating, Kochia (Kochia (Kochia scoparia) [8]; [21]) | Blackgrass plant response rating [10, 20] | Plant response rating, Blackgrass [10, 21] | Corn plant response rating (corn (Zea mays); [20]) | Plant response rating, Corn (corn (Zea mays); [21]) | Pigweed plant response rating [12, 20] | Plant response rating, Pigweed [12, 21] | Ragweed plant response rating [13, 20] | Plant response rating, Ragweed [13, 21] | Ryegrass, Italian plant response rating [14, 20] | Wheat plant response rating [15, 20] | Plant response rating, Wheat [15, 21] | Plant response rating, Ducksalad [17] | Plant response rating, Sedge, Umbrella [18]
40: Barnyardgrass plant response rating (0 to 100 scale, 0 is no effect, 100 is complete control) ([2]; Preemergence, 500 g ai/ha) | Foxtail, Giant plant response rating [11, 20]
30: Plant response rating, Barnyardgrass [2, 19] | Plant response rating, Barnyardgrass [9, 21] | Plant response rating, Foxtail, Giant [11, 21]
15: Plant response rating, Rice (rice (Oryra sativa))

O=C1NCC(c2cc(F)c(F)cc2F)C1C(=O)Nc1cccc(F)c1F (racemic) [Compound 550]
95: Plant response rating, Ducksalad [17]
55: Plant response rating, Barnyardgrass [16]
80: Plant response rating, Barnyardgrass [9, 23] | Plant response rating, Foxtail, Giant [11, 23]
50: Plant response rating, Kochia (Kochia (Kochia scoparia) [8]; [24]) | Plant response rating, Blackgrass [10, 24] | Plant response rating, Rice (rice (Oryra sativa))
60: Plant response rating, Galium [7, 24]
20: Ryegrass, Italian plant response rating (0 to 100 scale, 0 is no effect, 100 is complete control) ([6]; Preemergence, 500 g ai/ha) | Plant response rating, Corn (corn (Zea mays); [24]) | Plant response rating, Ryegrass, Italian [14, 24]
0: Plant response rating, Kochia (Kochia (Kochia scoparia) [1]; [22]) | Plant response rating, Pigweed [4, 22] | Pigweed plant response rating (0 to 100 scale, 0 is no effect, 100 is complete control) ([4]; Preemergence, 500 g ai/ha) | Plant response rating, Ragweed [5, 22] | Ragweed plant response rating (0 to 100 scale, 0 is no effect, 100 is complete control) ([5]; Preemergence, 500 g ai/ha) | Plant response rating, Ryegrass, Italian [6, 22] | Plant response rating, Galium [7, 23] | Plant response rating, Kochia (Kochia (Kochia scoparia) [8]; [23]) | Plant response rating, Blackgrass [10, 23] | Plant response rating, Corn (corn (Zea mays); [23]) | Plant response rating, Pigweed [12, 23] | Plant response rating, Pigweed [12, 24] | Plant response rating, Ragweed [13, 23] | Plant response rating, Ragweed [13, 24] | Plant response rating, Ryegrass, Italian [14, 23] | Plant response rating, Wheat [15, 23] | Plant response rating, Sedge, Umbrella [18]
30: Plant response rating, Wheat [15, 24]
90: Barnyardgrass plant response rating (0 to 100 scale, 0 is no effect, 100 is complete control) ([2]; Preemergence, 500 g ai/ha) | Plant response rating, Foxtail, Giant [3, 22] | Foxtail, Giant plant response rating (0 to 100 scale, 0 is no effect, 100 is complete control) ([3]; Preemergence, 500 g ai/ha) | Plant response rating, Barnyardgrass [9, 24] | Plant response rating, Foxtail, Giant [11, 24]
40: Kochia plant response rating (0 to 100 scale, 0 is no effect, 100 is complete control) (Kochia (Kochia scoparia) [1]; Preemergence, 500 g ai/ha) | Plant response rating, Barnyardgrass [2, 22]

CCc1cc(C2CNC(=O)C2C(=O)Nc2ccccc2F)cs1 (racemic) [Compound 657]
100: Plant response rating, Ducksalad [17]
60: Plant response rating, Foxtail, Giant [11, 26]
40: Plant response rating, Kochia (Kochia (Kochia scoparia) [1]; [25]) | Plant response rating, Barnyardgrass [16]
0: Plant response rating, Galium [7, 23] | Plant response rating, Kochia (Kochia (Kochia scoparia) [8]; [23]) | Plant response rating, Kochia (Kochia (Kochia scoparia) [8]; [26]) | Plant response rating, Blackgrass [10, 23] | Plant response rating, Corn (corn (Zea mays); [23]) | Plant response rating, Corn (corn (Zea mays); [26]) | Plant response rating, Foxtail, Giant [11, 23] | Plant response rating, Pigweed [12, 23] | Plant response rating, Pigweed [12, 26] | Plant response rating, Ragweed [13, 23] | Plant response rating, Ragweed [13, 26] | Plant response rating, Ryegrass, Italian [14, 23] | Plant response rating, Ryegrass, Italian [14, 26] | Plant response rating, Wheat [15, 23] | Plant response rating, Wheat [15, 26] | Plant response rating, Rice (rice (Oryra sativa)) | Plant response rating, Sedge, Umbrella [18]
90: Plant response rating, Barnyardgrass [2, 22] | Plant response rating, Barnyardgrass [2, 25] | Plant response rating, Foxtail, Giant [3, 22] | Plant response rating, Foxtail, Giant [3, 25] | Plant response rating, Barnyardgrass [9, 23] | Plant response rating, Barnyardgrass [9, 26]
20: Plant response rating, Kochia (Kochia (Kochia scoparia) [1]; [22]) | Plant response rating, Pigweed [4, 22] | Plant response rating, Ragweed [5, 22] | Plant response rating, Ragweed [5, 25] | Plant response rating, Ryegrass, Italian [6, 22]
30: Plant response rating, Pigweed [4, 25] | Plant response rating, Ryegrass, Italian [6, 25] | Plant response rating, Galium [7, 26] | Plant response rating, Blackgrass [10, 26]
